What was measured:
[1] = molecular target: Mitogen-activated protein kinase 10 (Homo sapiens, UniProt P53779); assay: Inhibition of JNK3 at 10 nM by spectrophotometric coupled-enzyme assay
[2] = molecular target: Mitogen-activated protein kinase 1 (Homo sapiens, UniProt P28482); assay: Inhibition of ERK2 by spectrophotometric coupled-enzyme assay
[3] = molecular target: Cyclin-dependent kinase 2 (Homo sapiens, UniProt P24941); assay: Inhibition of CDK2
[4] = molecular target: Dual specificity mitogen-activated protein kinase kinase 1 (Homo sapiens, UniProt Q02750); assay: Inhibition of MEK1
Sequence of Dual specificity mitogen-activated protein kinase kinase 1 (Q02750 whole entry): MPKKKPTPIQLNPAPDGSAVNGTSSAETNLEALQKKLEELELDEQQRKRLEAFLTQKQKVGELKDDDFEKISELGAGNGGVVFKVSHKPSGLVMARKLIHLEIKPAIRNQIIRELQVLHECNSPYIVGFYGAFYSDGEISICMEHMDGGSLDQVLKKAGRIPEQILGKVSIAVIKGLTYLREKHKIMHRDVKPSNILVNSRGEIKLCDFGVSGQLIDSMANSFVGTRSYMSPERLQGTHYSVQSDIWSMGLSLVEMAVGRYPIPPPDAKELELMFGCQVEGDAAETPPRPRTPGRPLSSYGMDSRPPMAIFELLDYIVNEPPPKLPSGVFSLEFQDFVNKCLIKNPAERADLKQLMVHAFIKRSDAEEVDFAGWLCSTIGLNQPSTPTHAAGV

[5] = molecular target: Vascular endothelial growth factor receptor 2 (Homo sapiens, UniProt P35968); assay: Inhibition of KDR kinase
Sequence of Vascular endothelial growth factor receptor 2 (P35968 whole entry): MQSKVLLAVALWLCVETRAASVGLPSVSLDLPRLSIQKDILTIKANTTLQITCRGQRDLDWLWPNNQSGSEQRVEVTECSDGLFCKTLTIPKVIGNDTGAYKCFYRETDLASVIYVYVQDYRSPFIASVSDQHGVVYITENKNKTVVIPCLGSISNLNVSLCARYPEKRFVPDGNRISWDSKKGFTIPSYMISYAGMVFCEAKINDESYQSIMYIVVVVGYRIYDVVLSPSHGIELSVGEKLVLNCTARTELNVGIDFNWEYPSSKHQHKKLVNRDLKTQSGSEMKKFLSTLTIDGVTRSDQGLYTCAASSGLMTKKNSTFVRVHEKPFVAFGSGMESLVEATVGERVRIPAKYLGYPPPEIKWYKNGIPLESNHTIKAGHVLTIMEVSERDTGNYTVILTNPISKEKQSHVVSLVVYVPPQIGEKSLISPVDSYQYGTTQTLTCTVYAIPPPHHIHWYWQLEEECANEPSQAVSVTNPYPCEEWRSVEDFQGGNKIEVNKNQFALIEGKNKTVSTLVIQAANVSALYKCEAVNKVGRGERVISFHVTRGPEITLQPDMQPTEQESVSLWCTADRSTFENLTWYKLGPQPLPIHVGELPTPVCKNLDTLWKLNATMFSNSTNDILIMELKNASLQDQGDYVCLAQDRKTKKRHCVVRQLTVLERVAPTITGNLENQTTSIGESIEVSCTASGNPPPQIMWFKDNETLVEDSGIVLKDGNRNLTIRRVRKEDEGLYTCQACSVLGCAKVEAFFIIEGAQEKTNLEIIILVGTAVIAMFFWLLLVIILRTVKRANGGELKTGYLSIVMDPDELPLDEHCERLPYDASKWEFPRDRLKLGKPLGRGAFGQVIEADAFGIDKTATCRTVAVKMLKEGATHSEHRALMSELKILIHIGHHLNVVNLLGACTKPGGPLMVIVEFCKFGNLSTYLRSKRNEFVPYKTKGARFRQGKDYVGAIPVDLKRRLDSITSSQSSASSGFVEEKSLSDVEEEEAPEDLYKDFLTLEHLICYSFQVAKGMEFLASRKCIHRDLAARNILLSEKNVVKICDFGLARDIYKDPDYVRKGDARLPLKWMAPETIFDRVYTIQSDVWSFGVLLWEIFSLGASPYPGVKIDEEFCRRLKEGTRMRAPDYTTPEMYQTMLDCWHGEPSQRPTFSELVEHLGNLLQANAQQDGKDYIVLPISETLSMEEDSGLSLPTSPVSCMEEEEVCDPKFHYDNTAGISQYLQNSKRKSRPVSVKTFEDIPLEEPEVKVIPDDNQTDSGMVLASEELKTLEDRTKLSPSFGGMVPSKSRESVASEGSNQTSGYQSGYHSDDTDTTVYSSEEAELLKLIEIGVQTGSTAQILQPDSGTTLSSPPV

[6] = molecular target: T1, Receptor-type tyrosine-protein kinase FLT3 (Homo sapiens, UniProt P36888); assay: Inhibition of FLT3 kinase
T1 sequence (P36888 whole entry): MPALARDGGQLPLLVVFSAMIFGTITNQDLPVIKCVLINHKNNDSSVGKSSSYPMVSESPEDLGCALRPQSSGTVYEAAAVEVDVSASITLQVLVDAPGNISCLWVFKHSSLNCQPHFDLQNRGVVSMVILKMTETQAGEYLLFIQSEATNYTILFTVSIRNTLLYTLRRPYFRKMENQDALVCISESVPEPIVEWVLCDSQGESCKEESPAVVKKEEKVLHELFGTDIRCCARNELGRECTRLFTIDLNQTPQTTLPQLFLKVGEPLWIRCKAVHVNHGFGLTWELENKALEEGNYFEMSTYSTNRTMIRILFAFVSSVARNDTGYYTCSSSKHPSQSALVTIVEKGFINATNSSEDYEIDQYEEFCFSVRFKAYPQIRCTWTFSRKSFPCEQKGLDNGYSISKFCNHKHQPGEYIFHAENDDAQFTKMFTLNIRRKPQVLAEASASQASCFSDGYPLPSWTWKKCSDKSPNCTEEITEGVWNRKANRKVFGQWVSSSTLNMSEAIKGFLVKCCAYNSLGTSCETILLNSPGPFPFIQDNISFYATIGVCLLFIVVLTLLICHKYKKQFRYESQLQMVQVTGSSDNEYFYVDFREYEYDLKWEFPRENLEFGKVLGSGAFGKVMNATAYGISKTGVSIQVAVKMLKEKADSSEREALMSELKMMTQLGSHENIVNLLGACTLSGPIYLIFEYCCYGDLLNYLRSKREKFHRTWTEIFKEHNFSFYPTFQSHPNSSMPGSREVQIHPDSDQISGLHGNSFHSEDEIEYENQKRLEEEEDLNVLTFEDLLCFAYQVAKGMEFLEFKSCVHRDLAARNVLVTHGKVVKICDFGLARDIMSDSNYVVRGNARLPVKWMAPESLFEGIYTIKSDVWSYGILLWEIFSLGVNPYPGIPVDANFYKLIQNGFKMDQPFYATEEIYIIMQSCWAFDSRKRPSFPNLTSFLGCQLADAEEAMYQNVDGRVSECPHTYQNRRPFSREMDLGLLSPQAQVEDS

[7] = test system: COLO 205; assay: Antiproliferative activity against Colo205 cells measured by [3H]thymidine incorporation after 48 hrs; format: functional, cell-based; settings: Homo sapiens
[8] = molecular target: Proto-oncogene tyrosine-protein kinase Src (Homo sapiens, UniProt P12931); assay: Inhibition of SRC kinase
Sequence of Proto-oncogene tyrosine-protein kinase Src (P12931 2-536 limits assumed): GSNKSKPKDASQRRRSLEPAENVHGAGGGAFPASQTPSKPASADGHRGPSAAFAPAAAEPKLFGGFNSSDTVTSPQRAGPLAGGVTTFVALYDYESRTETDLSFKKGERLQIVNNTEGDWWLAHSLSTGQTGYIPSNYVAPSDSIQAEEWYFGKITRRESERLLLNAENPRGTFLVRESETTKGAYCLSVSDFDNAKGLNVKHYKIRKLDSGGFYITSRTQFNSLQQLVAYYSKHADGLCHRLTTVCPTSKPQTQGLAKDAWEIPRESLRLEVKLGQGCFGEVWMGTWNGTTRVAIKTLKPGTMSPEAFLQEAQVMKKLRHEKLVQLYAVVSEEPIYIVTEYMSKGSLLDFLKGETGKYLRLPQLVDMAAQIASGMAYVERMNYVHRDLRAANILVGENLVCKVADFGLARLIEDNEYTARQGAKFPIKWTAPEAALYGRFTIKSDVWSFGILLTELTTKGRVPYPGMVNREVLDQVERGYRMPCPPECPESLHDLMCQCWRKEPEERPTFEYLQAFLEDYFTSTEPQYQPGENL

[9] = molecular target: Mitogen-activated protein kinase 14 (Homo sapiens, UniProt Q16539); assay: Inhibition of p38 alpha kinase
Sequence of Mitogen-activated protein kinase 14 (Q16539 whole entry): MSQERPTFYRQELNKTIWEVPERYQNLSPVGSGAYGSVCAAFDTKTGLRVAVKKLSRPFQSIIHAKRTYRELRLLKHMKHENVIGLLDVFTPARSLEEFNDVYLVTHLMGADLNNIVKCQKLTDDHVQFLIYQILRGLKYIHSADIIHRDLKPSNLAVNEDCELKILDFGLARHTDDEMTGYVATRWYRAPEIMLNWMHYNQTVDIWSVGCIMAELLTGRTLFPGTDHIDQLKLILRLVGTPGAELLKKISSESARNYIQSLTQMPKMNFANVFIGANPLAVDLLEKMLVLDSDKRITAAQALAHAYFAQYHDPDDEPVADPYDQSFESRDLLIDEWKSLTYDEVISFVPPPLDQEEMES

[10] = molecular target: cAMP-dependent protein kinase (PKA) (Homo sapiens, UniProt P22694+P17612+P22612); assay: Inhibition of PKA; format: protein assay
[11] = molecular target: Glycogen synthase kinase-3 (Homo sapiens, UniProt P49840+P49841); assay: Inhibition of GSK3; format: protein assay
[12] = molecular target: T2, Aurora kinase A (Homo sapiens, UniProt O14965); assay: Inhibition of AURA kinase
T2 sequence (O14965 whole entry): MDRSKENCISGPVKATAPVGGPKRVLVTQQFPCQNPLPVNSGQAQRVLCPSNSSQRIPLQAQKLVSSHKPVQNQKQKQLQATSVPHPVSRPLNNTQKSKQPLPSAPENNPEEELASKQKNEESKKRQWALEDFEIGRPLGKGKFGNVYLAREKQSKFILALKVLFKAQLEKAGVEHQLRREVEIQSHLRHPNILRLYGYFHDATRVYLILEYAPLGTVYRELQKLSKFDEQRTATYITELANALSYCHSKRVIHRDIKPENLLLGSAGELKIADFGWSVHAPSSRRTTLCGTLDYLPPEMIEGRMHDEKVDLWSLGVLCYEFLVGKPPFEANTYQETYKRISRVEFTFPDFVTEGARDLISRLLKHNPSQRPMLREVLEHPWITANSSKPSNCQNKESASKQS

[13] = molecular target: RAC-gamma serine/threonine-protein kinase (Homo sapiens, UniProt Q9Y243); assay: Inhibition of AKT3 kinase
Sequence of RAC-gamma serine/threonine-protein kinase (Q9Y243 whole entry): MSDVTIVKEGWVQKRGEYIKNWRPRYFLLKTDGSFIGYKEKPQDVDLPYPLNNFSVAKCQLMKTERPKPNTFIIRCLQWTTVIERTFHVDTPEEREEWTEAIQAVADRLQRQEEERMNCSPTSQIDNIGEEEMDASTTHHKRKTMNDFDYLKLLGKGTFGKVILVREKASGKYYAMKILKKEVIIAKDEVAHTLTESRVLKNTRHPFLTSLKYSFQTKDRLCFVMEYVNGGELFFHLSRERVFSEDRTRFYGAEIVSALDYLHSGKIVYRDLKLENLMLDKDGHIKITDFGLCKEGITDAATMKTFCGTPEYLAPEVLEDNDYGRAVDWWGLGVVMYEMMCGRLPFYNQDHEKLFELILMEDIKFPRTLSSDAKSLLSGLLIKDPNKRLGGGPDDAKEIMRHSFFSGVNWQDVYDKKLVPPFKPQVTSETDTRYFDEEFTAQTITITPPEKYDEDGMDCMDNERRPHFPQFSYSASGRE

Sequence of Mitogen-activated protein kinase 1 (P28482 whole entry): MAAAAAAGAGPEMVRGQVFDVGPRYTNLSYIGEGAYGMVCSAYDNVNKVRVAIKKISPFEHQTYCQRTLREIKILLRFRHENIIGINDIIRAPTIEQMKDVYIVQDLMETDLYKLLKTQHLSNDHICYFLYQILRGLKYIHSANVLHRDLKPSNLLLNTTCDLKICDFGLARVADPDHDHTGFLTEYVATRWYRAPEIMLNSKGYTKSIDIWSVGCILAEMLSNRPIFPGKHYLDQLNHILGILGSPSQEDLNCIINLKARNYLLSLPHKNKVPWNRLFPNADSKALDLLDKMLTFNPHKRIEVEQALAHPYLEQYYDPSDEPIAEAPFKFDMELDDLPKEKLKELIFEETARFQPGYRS
Sequence of Mitogen-activated protein kinase 10 (P53779 whole entry): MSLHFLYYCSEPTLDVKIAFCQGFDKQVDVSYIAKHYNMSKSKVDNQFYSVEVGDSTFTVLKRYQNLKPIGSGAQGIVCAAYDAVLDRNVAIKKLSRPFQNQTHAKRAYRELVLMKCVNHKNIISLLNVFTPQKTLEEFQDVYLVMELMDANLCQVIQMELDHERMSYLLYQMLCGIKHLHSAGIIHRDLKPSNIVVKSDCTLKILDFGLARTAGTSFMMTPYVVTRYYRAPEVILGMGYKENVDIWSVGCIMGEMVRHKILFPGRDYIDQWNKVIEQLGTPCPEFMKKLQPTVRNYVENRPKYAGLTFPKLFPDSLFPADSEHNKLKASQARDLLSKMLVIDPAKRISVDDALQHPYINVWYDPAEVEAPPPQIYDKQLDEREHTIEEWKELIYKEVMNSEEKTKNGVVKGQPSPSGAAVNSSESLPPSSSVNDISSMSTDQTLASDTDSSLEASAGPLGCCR

Structure (SMILES)	Ki [1]	Ki [2]	other results
CCN1CCCC1CNC(=O)c1cc(-c2n[nH]cc2-c2cccc(Cl)c2)c[nH]1 (stereo not given)	> 4 µM	> 10 µM	–
O=C(NC(CO)c1cc(Cl)cc(Cl)c1)c1cc(-c2n[nH]cc2-c2cccc(Cl)c2)c[nH]1 (stereo not given)	3.4 µM	0.007 µM	–
O=C(NC(CO)c1ccc(C(F)(F)F)cc1)c1cc(-c2n[nH]cc2-c2cccc(Cl)c2)c[nH]1 (stereo not given)	2.7 µM	0.044 µM	–
O=C(N[C@H](CO)c1ccccc1)c1cc(-c2[nH]ncc2-c2cccc(Cl)c2)c[nH]1	2.8 µM	–	–
O=C(NCC1CCCO1)c1cc(-c2[nH]ncc2-c2cccc(Cl)c2)c[nH]1 (stereo not given)	2.7 µM	–	–
O=C(NC(CO)c1ccc(F)c(Cl)c1)c1cc(-c2[nH]ncc2-c2cccc(Cl)c2)c[nH]1 (stereo not given)	–	0.006 µM	–
O=C(NOCc1ccccc1)c1cc(-c2[nH]ncc2-c2cccc(Cl)c2)c[nH]1	2.9 µM	–	–
COc1ccc(CNC(=O)c2cc(-c3n[nH]cc3-c3cccc(Cl)c3)c[nH]2)cc1	0.84 µM	0.49 µM	–
O=C(NC(CO)c1cccc(F)c1)c1cc(-c2[nH]ncc2-c2cccc(Cl)c2)c[nH]1 (stereo not given)	3 µM	0.024 µM	–
NC(=O)[C@@H](NC(=O)c1cc(-c2[nH]ncc2-c2cccc(Cl)c2)c[nH]1)c1ccccc1	3.3 µM	0.51 µM	–
C[C@@H](NC(=O)c1cc(-c2n[nH]cc2-c2cccc(Cl)c2)c[nH]1)c1ccccc1	3.1 µM	0.1 µM	–
O=C(NC(CO)c1ccc(Cl)cc1)c1cc(-c2n[nH]cc2-c2cccc(Cl)c2)c[nH]1 (stereo not given)	2.5 µM	0.014 µM	–
O=C(NCc1ccc(F)c(F)c1)c1cc(-c2n[nH]cc2-c2cccc(Cl)c2)c[nH]1	0.79 µM	0.04 µM	–
O=C(NCCc1cccnc1)c1cc(-c2[nH]ncc2-c2cccc(Cl)c2)c[nH]1	> 4 µM	0.33 µM	–
CNC(=O)[C@@H](NC(=O)c1cc(-c2[nH]ncc2-c2cccc(Cl)c2)c[nH]1)c1ccccc1	3.9 µM	2.3 µM	–
O=C(NC(CO)c1ccc(F)c(F)c1)c1cc(-c2n[nH]cc2-c2cccc(Cl)c2)c[nH]1 (stereo not given)	2.8 µM	0.022 µM	–
CN(Cc1ccccc1)C(=O)c1cc(-c2[nH]ncc2-c2cccc(Cl)c2)c[nH]1	> 4 µM	0.44 µM	–
O=C(c1cc(-c2[nH]ncc2-c2cccc(Cl)c2)c[nH]1)N1CCc2ccccc2C1	> 4 µM	0.51 µM	–
O=C(NC1c2ccccc2CC1O)c1cc(-c2[nH]ncc2-c2cccc(Cl)c2)c[nH]1 (stereo not given)	3.2 µM	4 µM	–
CCN(C)C(=O)c1cc(-c2n[nH]cc2-c2cccc(Cl)c2)c[nH]1	> 4 µM	–	–
O=C(N[C@@H](CO)c1ccc(F)c(Cl)c1)c1cc(-c2n[nH]cc2-c2cccc(Cl)c2)c[nH]1	> 4 µM	0.15 µM	–
O=C(NC(CO)c1ccc(F)cc1)c1cc(-c2n[nH]cc2-c2cccc(Cl)c2)c[nH]1 (stereo not given)	> 4 µM	0.063 µM	–
O=C(N[C@H](C(=O)O)c1ccccc1)c1cc(-c2n[nH]cc2-c2cccc(Cl)c2)c[nH]1	> 4 µM	> 5 µM	–
C[C@H](NC(=O)c1cc(-c2n[nH]cc2-c2cccc(Cl)c2)c[nH]1)c1ccccc1	> 4 µM	0.66 µM	–
CN(C)C(=O)c1cc(-c2n[nH]cc2-c2ccccc2)c[nH]1	> 4 µM	–	–
O=C(N[C@H](CO)c1ccc(F)c(Cl)c1)c1cc(-c2n[nH]cc2-c2cccc(Cl)c2)c[nH]1	> 4 µM	–	Ki [3]: > 4 µM; Ki [4]: > 4 µM; Ki [5]: 3.9 µM; Ki [6]: 0.75 µM; IC50 [7]: 0.54 µM; Ki [8]: 1.1 µM; Ki [9]: > 4 µM; Ki [10]: 0.39 µM; Ki [11]: 3.3 µM; Ki [12]: > 4 µM; Ki [13]: 1.8 µM
O=C(NC(CO)c1ccccc1F)c1cc(-c2[nH]ncc2-c2cccc(Cl)c2)c[nH]1 (stereo not given)	3.1 µM	0.24 µM	–
O=C(c1cc(-c2[nH]ncc2-c2cccc(Cl)c2)c[nH]1)N1CCCC1	1.8 µM	0.2 µM	–

— ChEMBL document CHEMBL1142871, “Flipped out: structure-guided design of selective pyrazolylpyrrole ERK inhibitors” (J Med Chem, 2007)
